For one data set, the system named is PDE1. The data set can be described thus: IC50 on purified PDE1 isozyme (calmodulin-activated). The class given is biochemical, bovine. The conditions noted are these: 1 µM cGMP substrate, CaM modulator; mean±s.e.m. of three experiments. As to the method:
(§1) PDE1, PDE3, PDE4 and PDE5 were isolated by anion exchange chromatography from bovine aortic smooth muscle cytosolic fraction. PDE2 was isolated from human platelets following the method described in [44]. Purified PDEs were stored as small aliquots at −80°C until use. PDE activity was determined at a substrate concentration of 1 µM cAMP or cGMP in the presence of 10,000 cpm [^3H]-cAMP or -cGMP as tracers. PDE1 activity was assessed at 1 µM cGMP in calmodulin-activated state (18 nM calmodulin with 10 µM CaCl2). PDE2 activity was assessed at 1 µM cAMP in activated state (+5 µM cGMP), and PDE3 and PDE4 activities were assessed at 1 µM cAMP in the presence of 1 mM EGTA. […] PDE5 activity was measured at 1 µM cGMP in the presence of 1 mM of EGTA. […] This concentration of DMSO had no effect when tested in control preparation.

In data set [1] the test system is PDE4. The data set can be described thus: IC50 on purified PDE4 isozyme. The class given is biochemical, bovine. Particulars: for IC50: 1 µM cAMP substrate, mean±s.e.m. of three experiments. As to the method:
as §1

In the next data set the test system is MRL/lpr lupus-prone mice. In words: Treatment of MRL/lpr lupus-prone mice with PDE inhibitors: proteinuria, survival, anti-DNA antibodies. Particulars: for Median survival time / Mice with positive proteinuria: 100 µg i.v. at 5, 7, 9 and 13 weeks; for Mice with positive proteinuria: at 18 weeks of age; for Age at which treated mice started dying / Proteinuria level compared to the control group: i.v. at 5, 7, 9 and 13 weeks; for Age at which treated mice started dying: control 17 weeks; for Proteinuria level compared to the control group: 100 µg pentoxifylline or 30 µg NCS 613.

A further data set deals with PBLs from MRL/lpr mice. The data set can be described thus: Ex vivo LPS-induced TNFα secretion by PBLs from treated MRL/lpr mice. The format is in vivo, mouse. The conditions noted are these: PBLs of 14 week-old mice treated i.v. (100 µg pentoxifylline or denbufylline, 30 µg NCS 613); 5 µg/mL LPS, 24 h. The protocol:
Blood samples were pooled from groups of seven 14 week-old treated mice. PBLs were purified by density separation (Lympholyte-M, d = 1.0875; Cedarlane, Hornby, Canada), washed three times, and resuspended at 5×10^6 cells/ml in L-alanyl-L-glutamine-enriched RPMI 1640 medium (Cambrex, Verviers, Belgium) containing 10% (v/v) fetal calf serum (Dutscher, Brumath, France), HEPES, gentamycin and β-mercaptoethanol. They were cultured in duplicate using 5×10^5 cells/well in the presence of 5 µg/mL LPS from E. coli. Culture supernatants were collected after 24 h and stored frozen at −20°C. TNFα levels were determined using a double-sandwich ELISA (PharMingen, San Diego, CA; detection limit 30 pg/mL) according to the manufacturer's instructions.

For the next data set, the system named is acid gastric secretion. Also noted: method as in PMID 10640302. The conditions noted are these: cited from earlier work.
The next data set addresses T1, PDE5 (Bos taurus, UniProt Q28156).
T1 construct: isolated by anion exchange chromatography from bovine aortic smooth muscle cytosolic fraction; from tissue; host or cells: bovine aortic smooth muscle cytosolic fraction
The data set can be described thus: IC50 on purified PDE5 isozyme. The class given is biochemical, bovine. The conditions noted are these: 1 µM cGMP substrate; mean±s.e.m. of three experiments. The protocol:
as §1

The target in a further data set is T2, human recombinant PDE4B (Homo sapiens, UniProt Q07343).
T2 construct: gift of Ted J. Torphy (SmithKline Beecham Pharmaceuticals, King of Prussia, PA, USA)
T2 sequence (Q07343 whole entry): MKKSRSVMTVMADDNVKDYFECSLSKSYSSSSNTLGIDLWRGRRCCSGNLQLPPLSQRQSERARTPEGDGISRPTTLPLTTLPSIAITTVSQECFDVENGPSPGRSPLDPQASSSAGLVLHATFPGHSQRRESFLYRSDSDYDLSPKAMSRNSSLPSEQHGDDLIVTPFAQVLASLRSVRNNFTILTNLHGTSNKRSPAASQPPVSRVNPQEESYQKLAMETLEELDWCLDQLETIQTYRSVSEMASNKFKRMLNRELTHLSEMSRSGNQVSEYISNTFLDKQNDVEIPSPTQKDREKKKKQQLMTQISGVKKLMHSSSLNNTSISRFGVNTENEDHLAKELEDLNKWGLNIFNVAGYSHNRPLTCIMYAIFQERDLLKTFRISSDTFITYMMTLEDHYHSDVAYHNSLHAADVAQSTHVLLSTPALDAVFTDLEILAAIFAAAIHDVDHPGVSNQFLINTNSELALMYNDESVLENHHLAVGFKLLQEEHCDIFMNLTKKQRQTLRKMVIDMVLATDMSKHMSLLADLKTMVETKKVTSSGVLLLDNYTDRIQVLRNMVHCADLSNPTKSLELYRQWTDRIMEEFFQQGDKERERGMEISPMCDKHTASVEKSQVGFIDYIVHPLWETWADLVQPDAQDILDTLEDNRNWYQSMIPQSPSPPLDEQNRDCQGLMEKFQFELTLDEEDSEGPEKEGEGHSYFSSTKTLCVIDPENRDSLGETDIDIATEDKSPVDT
The data set can be described thus: IC50 on human recombinant PDE4B. The format is biochemical.

For another data set, the system named is PBLs from SLE patients. The data set can be described thus: TNFα secretion by PBLs from SLE patients. The format is cell-based, human. The conditions noted are these: for Effect on LPS-induced TNFα production: 5 µg/mL LPS, 24 h. The protocol: PBLs were isolated by centrifugation on Ficoll-Histopaque (Sigma-Aldrich) and cultured as described above using 5×10^5 cells/well. […] Culture supernatants were collected 24 h later and stored frozen at −20°C before TNFα level determination, as described above.

A further data set has as its target T3, PDE2 (Homo sapiens, UniProt O00408).
T3 construct: PDE2 was isolated from human platelets; from tissue; host or cells: human platelets
The data set can be described thus: IC50 on purified PDE2 isozyme (cGMP-activated). The format is biochemical. The conditions noted are these: 1 µM cAMP substrate, cGMP modulator; mean±s.e.m. of three experiments. As to the method:
as §1

Another data set concerns human PBLs. More on the design: method as in PMID 10640302. Particulars: read-out: IC50 LPS-induced TNFα secretion by human PBLs; cited from earlier work.
The target in a further data set is T4, human recombinant PDE4A (Homo sapiens, UniProt P27815).
T4 construct: gift of Ted J. Torphy (SmithKline Beecham Pharmaceuticals, King of Prussia, PA, USA)
T4 sequence (P27815 whole entry): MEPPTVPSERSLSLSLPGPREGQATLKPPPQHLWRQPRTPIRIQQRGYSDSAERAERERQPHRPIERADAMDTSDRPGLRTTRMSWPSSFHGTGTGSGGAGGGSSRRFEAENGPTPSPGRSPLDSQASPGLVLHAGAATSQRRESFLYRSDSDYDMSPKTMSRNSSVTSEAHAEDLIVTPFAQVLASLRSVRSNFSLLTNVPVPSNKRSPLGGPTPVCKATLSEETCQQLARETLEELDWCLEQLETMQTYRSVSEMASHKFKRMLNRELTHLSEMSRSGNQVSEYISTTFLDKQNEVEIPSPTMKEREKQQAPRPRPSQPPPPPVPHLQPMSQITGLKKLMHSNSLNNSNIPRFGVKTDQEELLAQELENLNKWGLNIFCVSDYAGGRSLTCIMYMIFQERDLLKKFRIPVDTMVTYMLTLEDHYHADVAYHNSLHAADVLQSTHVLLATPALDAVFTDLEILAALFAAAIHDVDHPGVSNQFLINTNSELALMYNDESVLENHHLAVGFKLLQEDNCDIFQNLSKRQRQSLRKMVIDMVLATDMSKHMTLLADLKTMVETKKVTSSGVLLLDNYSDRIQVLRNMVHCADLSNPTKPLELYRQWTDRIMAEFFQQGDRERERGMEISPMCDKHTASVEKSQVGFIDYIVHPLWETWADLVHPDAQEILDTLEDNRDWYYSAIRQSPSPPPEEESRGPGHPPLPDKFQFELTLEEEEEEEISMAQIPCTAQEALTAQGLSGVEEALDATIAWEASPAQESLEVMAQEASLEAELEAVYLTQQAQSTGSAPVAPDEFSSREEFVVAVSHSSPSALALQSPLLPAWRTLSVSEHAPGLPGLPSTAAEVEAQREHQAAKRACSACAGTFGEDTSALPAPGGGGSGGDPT
The data set can be described thus: IC50 on human recombinant PDE4A. The format is biochemical.

Data set [2] is described as follows: Solubility in injection vehicle PBS-10% ethanol. Particulars: at 100 µg/100 µL. The class given is physicochemical.
Another data set has as its target T5, PDE3 (Bos taurus, UniProt A0A3Q1M1E8).
T5 sequence (A0A3Q1M1E8 1-1126): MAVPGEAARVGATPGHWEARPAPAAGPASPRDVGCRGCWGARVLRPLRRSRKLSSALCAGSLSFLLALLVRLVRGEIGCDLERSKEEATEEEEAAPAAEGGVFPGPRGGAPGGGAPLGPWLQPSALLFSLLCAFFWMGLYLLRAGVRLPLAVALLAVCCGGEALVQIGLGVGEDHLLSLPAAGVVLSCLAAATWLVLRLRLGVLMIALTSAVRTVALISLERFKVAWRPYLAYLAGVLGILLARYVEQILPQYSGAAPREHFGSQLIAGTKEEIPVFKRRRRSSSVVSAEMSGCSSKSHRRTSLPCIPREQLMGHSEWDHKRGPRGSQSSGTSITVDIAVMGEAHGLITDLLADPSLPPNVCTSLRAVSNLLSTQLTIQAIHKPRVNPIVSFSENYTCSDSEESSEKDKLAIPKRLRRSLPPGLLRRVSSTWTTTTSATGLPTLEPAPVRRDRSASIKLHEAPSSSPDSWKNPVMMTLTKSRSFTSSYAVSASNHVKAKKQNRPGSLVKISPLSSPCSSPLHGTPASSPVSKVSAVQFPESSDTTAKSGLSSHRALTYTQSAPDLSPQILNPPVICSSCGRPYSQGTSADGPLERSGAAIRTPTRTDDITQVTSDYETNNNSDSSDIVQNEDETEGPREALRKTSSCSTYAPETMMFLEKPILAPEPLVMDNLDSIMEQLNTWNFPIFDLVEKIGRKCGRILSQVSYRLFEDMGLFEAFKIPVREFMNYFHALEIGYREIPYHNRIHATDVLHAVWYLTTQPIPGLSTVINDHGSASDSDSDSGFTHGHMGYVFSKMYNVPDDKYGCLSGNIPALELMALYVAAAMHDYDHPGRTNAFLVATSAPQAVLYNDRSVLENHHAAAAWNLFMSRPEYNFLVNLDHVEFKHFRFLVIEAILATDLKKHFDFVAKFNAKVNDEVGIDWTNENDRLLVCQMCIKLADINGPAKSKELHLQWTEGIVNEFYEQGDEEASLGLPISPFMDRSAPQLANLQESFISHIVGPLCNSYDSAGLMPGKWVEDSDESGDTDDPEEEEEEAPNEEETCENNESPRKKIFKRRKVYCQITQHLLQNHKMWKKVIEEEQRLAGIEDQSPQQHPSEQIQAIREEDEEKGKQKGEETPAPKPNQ
In words: IC50 on purified PDE3 isozyme. The format is biochemical, bovine. Particulars: 1 µM cAMP substrate; mean±s.e.m. of three experiments. The protocol:
PDE2 was isolated from human platelets following the method described in [44]. Purified PDEs were stored as small aliquots at −80°C until use. PDE activity was determined at a substrate concentration of 1 µM cAMP or cGMP in the presence of 10,000 cpm [^3H]-cAMP or -cGMP as tracers. PDE1 activity was assessed at 1 µM cGMP in calmodulin-activated state (18 nM calmodulin with 10 µM CaCl2). […] This concentration of DMSO had no effect when tested in control preparation.

Data set [3] has as its system PDE4. Also noted: method as in PMID 9191951. Particulars: text value with reference; cited from earlier work.
A further data set addresses T6, human recombinant PDE4C (Homo sapiens, UniProt Q08493).
T6 construct: gift of Ted J. Torphy (SmithKline Beecham Pharmaceuticals, King of Prussia, PA, USA)
The data set can be described thus: IC50 on human recombinant PDE4C. The format is biochemical. Particulars: 1 µM cAMP; with confidence interval.

In another data set the target is T7, human recombinant PDE4D (Homo sapiens, UniProt Q08499).
T7 construct: gift of Ted J. Torphy (SmithKline Beecham Pharmaceuticals, King of Prussia, PA, USA)
T7 sequence (Q08499 whole entry): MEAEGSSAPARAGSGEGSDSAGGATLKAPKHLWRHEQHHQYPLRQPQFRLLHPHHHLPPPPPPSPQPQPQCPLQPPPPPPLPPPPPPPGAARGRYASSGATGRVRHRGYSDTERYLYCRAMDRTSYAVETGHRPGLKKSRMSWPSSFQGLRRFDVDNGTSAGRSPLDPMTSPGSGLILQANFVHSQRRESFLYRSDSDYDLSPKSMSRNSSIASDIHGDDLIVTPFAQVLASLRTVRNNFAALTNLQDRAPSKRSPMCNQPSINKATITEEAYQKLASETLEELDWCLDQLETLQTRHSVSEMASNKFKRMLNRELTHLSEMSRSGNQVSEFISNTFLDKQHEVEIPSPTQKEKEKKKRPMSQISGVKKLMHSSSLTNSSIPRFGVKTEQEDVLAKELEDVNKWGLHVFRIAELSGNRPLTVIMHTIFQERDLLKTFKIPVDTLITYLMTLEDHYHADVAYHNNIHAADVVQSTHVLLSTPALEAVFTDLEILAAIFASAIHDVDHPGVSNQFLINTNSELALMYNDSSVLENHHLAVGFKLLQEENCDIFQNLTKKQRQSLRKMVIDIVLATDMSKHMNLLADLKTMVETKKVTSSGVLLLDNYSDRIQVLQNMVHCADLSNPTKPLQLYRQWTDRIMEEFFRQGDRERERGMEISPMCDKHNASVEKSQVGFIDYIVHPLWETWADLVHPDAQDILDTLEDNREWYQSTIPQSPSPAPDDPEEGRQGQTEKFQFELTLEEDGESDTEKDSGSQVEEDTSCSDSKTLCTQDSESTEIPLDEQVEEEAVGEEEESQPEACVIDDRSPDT
In words: IC50 on human recombinant PDE4D. The class given is biochemical.

In data set [4] the target is High Affinity Rolipram Binding Site (HARBS). The data set can be described thus: 3H-rolipram binding assay on rat brain membranes. The conditions noted are these: rat brain membrane, 4 nM 3H-rolipram; read-out: Ki toward 3H-rolipram binding (HARBS).
Method: The assay was done in 50 mM N-Tris hydroxymethyl methyl-2-aminoethane sulfonic acid/NaOH buffer, pH 7.6, containing 10 mM MgCl2, 0.1 M NaCl and 100 µM 5′AMP. […] Binding assays were started by the addition of 100 µL of rat brain membrane (0.9 mg protein/mL) to the reaction mixture and conducted at 23°C for 1 h under agitation and stopped by the addition of 3 mL of ice-cold reaction buffer and rapid vacuum filtration through Whatman GF/B filters that have been soaked in 0.3% (v/v) polyethylenimine. Filters were washed twice (3 ml of ice-cold reaction buffer without 5′AMP), dried and counted by liquid scintillation. […] Ki and confidence interval values of binding studies were determined by using one site fit Ki GraphPad Prism5 analysis.
The mark [5] stands for this setting: 1 µM cAMP, with confidence interval.

Like-named read-outs stand apart in the source and are kept apart here. Some results are limits rather than exact numbers.

T3 sequence (O00408 whole entry): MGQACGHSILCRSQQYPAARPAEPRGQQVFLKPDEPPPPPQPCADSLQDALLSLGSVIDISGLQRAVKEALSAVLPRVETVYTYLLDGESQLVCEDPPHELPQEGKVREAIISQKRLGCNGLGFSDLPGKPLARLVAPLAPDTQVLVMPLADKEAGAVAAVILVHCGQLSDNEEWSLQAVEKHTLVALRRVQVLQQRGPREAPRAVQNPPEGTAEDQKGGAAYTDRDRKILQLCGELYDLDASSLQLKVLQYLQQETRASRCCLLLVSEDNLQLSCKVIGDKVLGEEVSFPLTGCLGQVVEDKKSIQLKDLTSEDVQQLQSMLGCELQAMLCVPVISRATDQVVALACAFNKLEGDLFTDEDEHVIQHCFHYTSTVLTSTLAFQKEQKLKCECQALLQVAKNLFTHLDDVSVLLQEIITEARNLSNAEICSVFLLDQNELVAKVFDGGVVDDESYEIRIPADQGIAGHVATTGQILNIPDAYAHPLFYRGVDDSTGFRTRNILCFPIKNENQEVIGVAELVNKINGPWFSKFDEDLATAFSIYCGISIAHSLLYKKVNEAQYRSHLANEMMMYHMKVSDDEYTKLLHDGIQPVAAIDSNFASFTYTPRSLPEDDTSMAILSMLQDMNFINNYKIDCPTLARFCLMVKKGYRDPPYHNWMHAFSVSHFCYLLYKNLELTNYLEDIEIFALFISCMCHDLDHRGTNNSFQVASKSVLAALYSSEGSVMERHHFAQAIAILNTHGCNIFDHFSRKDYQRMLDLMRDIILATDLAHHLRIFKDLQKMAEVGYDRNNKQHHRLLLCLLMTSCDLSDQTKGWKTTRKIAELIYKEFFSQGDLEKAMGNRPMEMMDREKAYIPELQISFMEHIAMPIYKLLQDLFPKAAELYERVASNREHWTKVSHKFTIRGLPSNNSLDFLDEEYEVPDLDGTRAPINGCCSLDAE
T6 sequence (Q08493 whole entry): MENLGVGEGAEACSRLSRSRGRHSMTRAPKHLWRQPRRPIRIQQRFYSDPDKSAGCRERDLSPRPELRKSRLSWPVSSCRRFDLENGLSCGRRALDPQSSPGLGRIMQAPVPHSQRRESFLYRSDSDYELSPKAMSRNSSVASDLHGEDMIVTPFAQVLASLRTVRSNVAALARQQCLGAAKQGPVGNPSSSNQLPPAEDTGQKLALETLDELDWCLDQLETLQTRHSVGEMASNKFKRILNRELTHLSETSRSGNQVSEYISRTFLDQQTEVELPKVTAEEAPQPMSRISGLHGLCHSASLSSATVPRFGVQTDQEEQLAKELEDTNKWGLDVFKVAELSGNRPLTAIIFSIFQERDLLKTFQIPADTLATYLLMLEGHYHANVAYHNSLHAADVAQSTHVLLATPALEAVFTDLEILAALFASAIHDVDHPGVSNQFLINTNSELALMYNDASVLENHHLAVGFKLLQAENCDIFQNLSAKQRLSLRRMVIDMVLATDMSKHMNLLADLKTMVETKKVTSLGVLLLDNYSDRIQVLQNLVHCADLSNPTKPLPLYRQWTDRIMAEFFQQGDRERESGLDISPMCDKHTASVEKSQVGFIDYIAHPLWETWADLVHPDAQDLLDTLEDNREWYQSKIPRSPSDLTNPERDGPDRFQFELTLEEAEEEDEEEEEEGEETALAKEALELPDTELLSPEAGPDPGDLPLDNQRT
Method for MRL/lpr lupus-prone mice: All mice were monitored regularly for different clinical and biological parameters over 26 weeks. Measurements of outcome included the evaluation of survival and proteinuria measured on a fresh urine sample. Protein levels were determined using colored strips (Albutix; Bayer Diagnostics, Basingstoke, UK) and scored at values corresponding to 30, 100, 300 and >2000 mg/dL.

For the compound `CCCCn1c(=O)c2c(ncn2CC(C)=O)n(CCCC)c1=O` [Denbufylline, denbufylline], in the data set with PDE1, half-maximal inhibition (IC50) required 133 ± 11 µM. In addition, the IC50 (usually the concentration that inhibits the measured activity by half) with PDE4 [1] amounted to 0.76 ± 0.05 µM. In the data set on MRL/lpr lupus-prone mice, the Median survival time came out at 26.5 weeks, the “Mice with positive proteinuria” value is “around 50%” and the “Age at which treated mice started dying” value is 15 weeks. Moreover, in the data set on PBLs from MRL/lpr mice, the “Inhibition rate of LPS-induced TNFα secretion” value (“Inhibition rate” for short) was 70%.

For the compound `CNc1nc(C(F)(F)F)nc2c1ncn2Cc1ccccc1F` [NCS 613], the “Induction of acid gastric secretion” value in the data set on acid gastric secretion is recorded as “does not induce”. The IC50 is 39 ± 2 µM in the data set with PDE1; 4.7 ± 0.1 µM on PDE5; 0.048 µM at human recombinant PDE4B; 0.0481 µM on human recombinant PDE4B (setting [5]); 24 ± 3 µM against PDE2; 0.018 µM in the data set with human PBLs. Besides, the IC50 was 0.044 µM on human recombinant PDE4A; 0.0436 µM on human recombinant PDE4A (setting [5]); 0.042 ± 0.003 µM in the data set on PDE4 [1]; greater than 300 µM against PDE3; 0.042 µM in the data set on PDE4 [3]; 0.0014 µM on human recombinant PDE4C. Besides, the IC50 turned out to be 0.014 µM at human recombinant PDE4D and 0.0144 µM on human recombinant PDE4D (setting [5]). The “Decrease of basal TNFα secretion level” value in the data set with PBLs from SLE patients (10 µM, no LPS, cells from patient 2) stood at 67%. Also, the “Effect on LPS-induced TNFα production” value is “No effect” in the data set on PBLs from SLE patients (patient SLE1, 0.1 µM); “significantly suppressed” with PBLs from SLE patients (patient SLE1, 1 µM); “significantly suppressed” in the data set with PBLs from SLE patients (patient SLE1, 10 µM). Besides, in data set [2], the “Solubility in PBS-10% ethanol” value is given as “not soluble”. The “PDE4 selectivity relatively to PDE1” value with PDE4 [1] is on record as 930 fold. Moreover, the “PDE4 selectivity relatively to PDE5” value in the data set with PDE4 [1] is 112 fold. In the data set on PDE4 [1] (ratio of IC50 values PDE5/PDE4), the PDE5/PDE4 ratio was 111.9. For the same compound, the “Age of the first mouse that developed proteinuria” value in the data set with MRL/lpr lupus-prone mice (30 µg i.v. at 5, 7, 9 and 13 weeks) is given as 18 week-old. Also, the “Effect on survival of MRL/lpr mice” value in the data set with MRL/lpr lupus-prone mice (30 µg i.v. at 5, 7, 9 and 13 weeks, P = 0.005) is “significantly increased”. The compound further displayed a Mice still alive in the data set on MRL/lpr lupus-prone mice (at 31 weeks, 30 µg i.v. at 5, 7, 9 and 13 weeks) of 50%. Also, the “Proteinuria level compared to the control group” value with MRL/lpr lupus-prone mice was “significantly lower”. Further, the “Age at which treated mice started dying” value in the data set on MRL/lpr lupus-prone mice is recorded as 26 weeks. Besides, the Ki (in general, a dissociation constant, usually derived from enzyme kinetics or from competition with a known ligand) in data set [4] is 0.148 µM. Further, the “Inhibition rate” value in the data set on PBLs from MRL/lpr mice was determined as 54%.

Regarding `CC(=O)CCCCn1c(=O)c2c(ncn2C)n(C)c1=O` [Pentoxifylline, pentoxifylline], in the data set with PDE1, the IC50 worked out at 236 ± 20 µM. The compound further gave an IC50 against PDE5 of 74 ± 6 µM. Moreover, the IC50 on PDE2 is 119 ± 10 µM. In the data set with PDE4 [1], this compound yielded an IC50 of 135 ± 11 µM. In the data set with MRL/lpr lupus-prone mice, the Median survival time was found to be 27.5 weeks, the “Mice with positive proteinuria” value was “around 50%”, the “Proteinuria level compared to the control group” value is recorded as “significantly lower” and the “Age at which treated mice started dying” value was 22 weeks. Further, in the data set with PBLs from MRL/lpr mice, the “Inhibition rate” value amounted to 51%.

These data come from article PMC3256138, “Disease Progression in MRL/lpr Lupus-Prone Mice Is Reduced by NCS 613, a Specific Cyclic Nucleotide Phosphodiesterase Type 4 (PDE4) Inhibitor” (PLoS ONE, 2012).
